This is an account of results in patent US20080004282A1, “Compositions and methods for modulating gated ion channels” (PainCeptor Pharma Corporation, priority 2006, published 2008).

One may read the ED50 as the dose that gives a 50% effect, or the effect in half of the subjects.

For the assay, the system named is chemically-induced spontaneous pain evoked by intraplantar injection of formalin. Kind of assay: Formalin test (model of acute tonic pain). The note with it: rat; for pain intensity as evaluated by the flinching or licking behaviors: s.c. 30 min prior to formalin injection; for ED50: sc, s.c. 30 min prior to formalin, licking and biting episodes in phase IIa, read-out: ED50, effective dose where the pain score is reduced by half. Type of assay: in vivo. The source says:
Model of Acute Tonic Pain
This example describes a procedure for the in vivo assessment of the inhibitory activity of the compounds of the present invention.
A number of well-established models of pain are described in the literature and are known to the skilled in the art (see, for example, Table 1). This example describes the use of the Formalin test.
Male Sprague-Dawley rats are housed together in groups of three animals under standard conditions with unrestricted access to food and water. All experiments are conducted according to the ethical guidelines for investigations of experimental pain in conscious animals (Zimmerman, 1983)
Assessment of formalin-induced flinching behavior in normal, uninjured rats (body weight 150-180 g) is made with the use of an Automated Nociception Analyser (University of California, San Diego, USA). Briefly, this involves placing a small C-shaped metal band (10 mm wide×27 mm long) on the hindpaw of the rat to be tested. The rats (four rats are included in each testing session) are then placed in a cylindrical plexiglass observation chamber (diameter 30.5 cm and height 15 cm) for 20 min for adaptation purposes prior to being administered drug or vehicle according to the experimental paradigm being followed. […] Rats are then returned to their separate observation chambers, each of which are in turn situated upon an enclosed detection device consisting of two electromagnetic coils designed to produce an electromagnetic field in which movement of the metal band could be detected. […] A sampling interval of 1 min is used and on the basis of the resulting response patterns 5 phases of nociceptive behaviour are identified and scored: first phase (P1; 0-5 min), interphase (Int; 6-15 min), second phase (P2; […]), phase 2A (P2A; 16-40 min) and phase 2B (P2B; 41-60 min).
Nociceptive behavior is also determined manually every 5 min by measuring the amount of time spent in each of four behavioral categories: 0, treatment of the injected hindpaw is indistinguishable from that of the contralateral paw; 1, the injected paw has little or no weight placed on it; 2, the injected paw is elevated and is not in contact with any surface; 3, the injected paw is licked, bitten, or shaken. A weighted nociceptive score, ranging from 0 to 3 is calculated by multiplying the time spent in each category by the category weight, summing these products, and dividing by the total time for each 5 min block of time. […] On the basis of the resulting response patterns, […] of nociceptive behavior are identified and scored: first phase (P1; 0-5 min), interphase (Int; 6-15 min), second phase (P2; […]), phase 2A (P2A; 16-40 min) and phase 2B (P2B; 41-60 min). […]

Turning to `CCN1CCc2c(-c3ccccc3)cc(C#N)c(N)c2C1` [Compound 12, 8-Amino-2-ethyl-5-phenyl-1,2,3,4-tetrahydro-isoquinoline-7-carbonitrile], the “pain intensity as evaluated by the flinching or licking behaviors” value is reported as “dose-dependent reduction” and the ED50 turned out to be 4 mg/kg.

As to `CCN1CCc2c(-c3cc(Cl)ccc3OC)cc(C#N)c(N)c2C1` [Compound 44], the “pain intensity as evaluated by the flinching or licking behaviors” value is “dose-dependent reduction” and the ED50 is 22 mg/kg.
